# According to patent US10414763B2 (CANCER RESEARCH TECHNOLOGY LIMITED, priority 2014, dated 2019):
# Biological target: T1, full-length human PKCι (Homo sapiens, UniProt P41743)
# T1 construct: Recombinant, full-length human PKCι expressed in Sf21 insect cells is also commercially available; purchased EMD Millipore; host or cells: Sf21 insect cells (baculovirus)
# T1 sequence (P41743 1-596): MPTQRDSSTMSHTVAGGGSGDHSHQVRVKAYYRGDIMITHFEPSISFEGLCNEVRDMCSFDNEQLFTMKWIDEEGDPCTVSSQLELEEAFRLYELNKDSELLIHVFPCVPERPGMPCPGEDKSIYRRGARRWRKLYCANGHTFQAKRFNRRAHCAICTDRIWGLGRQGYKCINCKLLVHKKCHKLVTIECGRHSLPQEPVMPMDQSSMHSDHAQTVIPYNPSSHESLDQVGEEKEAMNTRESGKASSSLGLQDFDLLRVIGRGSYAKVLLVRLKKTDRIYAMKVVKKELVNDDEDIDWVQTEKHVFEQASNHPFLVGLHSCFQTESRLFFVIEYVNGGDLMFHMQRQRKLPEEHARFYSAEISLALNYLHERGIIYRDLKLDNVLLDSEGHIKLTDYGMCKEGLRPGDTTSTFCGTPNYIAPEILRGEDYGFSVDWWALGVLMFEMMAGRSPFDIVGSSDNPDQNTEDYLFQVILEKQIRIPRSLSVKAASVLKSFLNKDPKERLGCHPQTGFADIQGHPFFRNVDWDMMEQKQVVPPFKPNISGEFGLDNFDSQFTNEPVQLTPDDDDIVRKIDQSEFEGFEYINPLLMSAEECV
# Assay: PKCι IC50 IMAP fluorescence polarisation assay, full-length enzyme, 150 μM ATP
# Format: biochemical
# Conditions: read-out: IC50 in IMAP assay against full length PKCi at 150 μM ATP
# In short: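 IMAP fluorescence polarisation kinase assay: 15 pM baculovirus-expressed human PKCiota with 100 nM FAM-pseudosubstrate peptide and 150 μM ATP, 1 h at 25 °C. IMAP detection reagent then 2 h at 25 °C before FP measurement. Inhibition referenced to no-compound and no-enzyme controls for IC50 fitting.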
row,IC50,Structure (SMILES)
1,100 to 1000 nM,"CC1(C)CNCCC1Nc1nc(-c2ccnc(Nc3cc(F)cc(F)n3)c2)nc2cncc(C3CCC3)c12 (stereo not shown) [Example 105, {5-Cyclobutyl-2-[2-(4,6-difluoro-pyridin-2-ylamino)-pyridin-4-yl]-pyrido[3,4-d]pyrimidin-4-yl}-(3,3-dimethyl-piperidin-4-yl)-amine]"
2,< 100 nM,"CC1(C)CNCCC1Nc1nc(-c2ccnc(Nc3cc(C#N)ccn3)c2)nc2cncc(C3CCC3)c12 (stereo not shown) [Example 107, 2-{4-[5-Cyclobutyl-4-(3,3-dimethyl-piperidin-4-ylamino)-pyrido[3,4-d]pyrimidin-2-yl]-pyridin-2-ylamino}-isonicotinonitrile]"
3,< 100 nM,"Fc1cc(F)c(Nc2cc(-c3nc(N[C@H]4[C@@H]5CNC[C@@H]54)c4c(C5CCC5)cncc4n3)ccn2)nc1F [Example 108, (1S,6S)-3-Aza-bicyclo[3.1.0]hex-6-yl-{(R)-5-cyclobutyl-2-[2-(3,5,6-trifluoro-pyridin-2-ylamino)-pyridin-4-yl]-pyrido[3,4-d]pyrimidin-4-yl}-amine]"
4,< 100 nM,"Fc1ccc(F)c(Nc2cc(-c3nc(N[C@H]4[C@@H]5CNC[C@@H]54)c4c(C5CCC5)cncc4n3)ccn2)n1 [Example 109, (1S,6S)-3-Aza-bicyclo[3.1.0]hex-6-yl-{(R)-5-cyclobutyl-2-[2-(3,6-difluoro-pyridin-2-ylamino)-pyridin-4-yl]-pyrido[3,4-d]pyrimidin-4-yl}-amine]"
5,< 100 nM,"c1ccc(Nc2cc(-c3nc(N[C@H]4[C@@H]5CNC[C@@H]54)c4c(C5CCC5)cncc4n3)ccn2)cc1 [Example 111, (1S,6S)-3-Aza-bicyclo[3.1.0]hex-6-yl-[(R)-5-cyclobutyl-2-(2-phenylamino-pyridin-4-yl)-pyrido[3,4-d]pyrimidin-4-yl]-amine]"
6,< 100 nM,"COc1nc(-c2cc3c(-c4nc(N5CCNCC5)c5c(C6CC6)cncc5n4)ccnc3[nH]2)cs1 [Example 112, 5-Cyclopropyl-2-[2-(2-methoxy-thiazol-4-yl)-1H-pyrrolo[2,3-b]pyridin-4-yl]-4-piperazin-1-yl-pyrido[3,4-d] pyrimidine]"
7,< 100 nM,"COc1nc(-c2cc3c(-c4nc(N5CCC6CNCCC65)c5c(C6CC6)cncc5n4)ccnc3[nH]2)cs1 (stereo not shown) [Example 118, 5-Cyclopropyl-2-[2-(2-methoxy-thiazol-4-yl)-1H-pyrrolo[2,3-b]pyridin-4-yl]-4-(octahydro-pyrrolo[3,2-c]pyridin-1-yl)-pyrido[3,4-d]pyrimidine]"
8,< 100 nM,"CS(=O)(=O)c1cc2c(-c3nc(N4CCNCC4)c4c(C5CCC5)cncc4n3)ccnc2[nH]1 [Example 120, 5-Cyclobutyl-2-(2-methanesulfonyl-1H-pyrrolo[2,3-b]pyridin-4-yl)-4-piperazin-1-yl-pyrido[3,4-d]pyrimidine]"
9,< 100 nM,"N[C@H]1C[C@@H](Nc2nc(-c3ccnc4[nH]c5ccccc5c34)nc3cncc(C4CCC4)c23)C1 [Example 121, cis-[5-Cyclobutyl-2-(9H-pyrido[2,3-b]indol-4-yl)-pyrido[3,4-d]pyrimidin-4-yl]-cyclobutane-1,3-diamine]"
10,< 100 nM,"OC1CNCCC(Nc2nc(-c3ccnc4[nH]c5ccccc5c34)nc3cncc(C4CCC4)c23)C1 (stereo not shown) [Example 122, 5-[5-Cyclobutyl-2-(9H-pyrido[2,3-b]indol-4-yl)-pyrido[3,4-d]pyrimidin-4-ylamino]-azepan-3-ol]"
11,< 100 nM,"Fc1cc(F)c(Nc2cc(-c3nc(N4CCC5NCCCC54)c4c(C5CCC5)cncc4n3)ccn2)nc1F (stereo not shown) [Example 123, {4-[5-Cyclobutyl-4-(octahydro-pyrrolo[3,2-b]pyridin-1-yl)-pyrido[3,4-d]pyrimidin-2-yl]-pyridin-2-yl}-(3,5,6-trifluoro-pyridin-2-yl)-amine]"
12,< 100 nM,"Fc1ccc(F)c(Nc2cc(-c3nc(N4CCC5NCCCC54)c4c(C5CCC5)cncc4n3)ccn2)n1 (stereo not shown) [Example 124, {4-[5-Cyclobutyl-4-(octahydro-pyrrolo[3,2-b]pyridin-1-yl)-pyrido[3,4-d]pyrimidin-2-yl]-pyridin-2-yl}-(3,6-difluoro-pyridin-2-yl)-amine]"
13,< 100 nM,"c1ccc(Nc2cc(-c3nc(N4CCC5NCCCC54)c4c(C5CCC5)cncc4n3)ccn2)cc1 (stereo not shown) [Example 125, {4-[5-Cyclobutyl-4-(octahydro-pyrrolo[3,2-b]pyridin-1-yl)-pyrido[3,4-d]pyrimidin-2-yl]-pyridin-2-yl}-phenyl-amine]"
14,< 100 nM,"CC1CNCCC1Nc1nc(-c2ccnc(Nc3nc(F)c(F)cc3F)c2)nc2cncc(C3CCC3)c12 (stereo not shown) [Example 126, {5-Cyclobutyl-2-[2-(3,5,6-trifluoro-pyridin-2-ylamino)-pyridin-4-yl]-pyrido[3,4-d]pyrimidin-4-yl}-(3-methyl-piperidin-4-yl)-amine]"
15,< 100 nM,"CC1CNCCC1Nc1nc(-c2ccnc(Nc3nc(F)ccc3F)c2)nc2cncc(C3CCC3)c12 (stereo not shown) [Example 127, {5-Cyclobutyl-2-[2-(3,6-difluoro-pyridin-2-ylamino)-pyridin-4-yl]-pyrido[3,4-d]pyrimidin-4-yl}-(3-methyl-piperidin-4-yl)-amine]"
16,< 100 nM,"Clc1ccccc1-c1cc2c(-c3nc(N4CCC5NCCC54)c4c(C5CC5)cncc4n3)ccnc2[nH]1 (stereo not shown) [Example 128, 2-[2-(2-Chloro-phenyl)-1H-pyrrolo[2,3-b]pyridin-4-yl]-5-cyclopropyl-4-(hexahydro-pyrrolo[3,2-b]pyrrol-1-yl)-pyrido[3,4-d]pyrimidine]"
17,< 100 nM,"Clc1ccccc1-c1cc2c(-c3nc(N4CCC5NCCCC54)c4c(C5CC5)cncc4n3)ccnc2[nH]1 (stereo not shown) [Example 129, 2-[2-(2-Chloro-phenyl)-1H-pyrrolo[2,3-b]pyridin-4-yl]-5-cyclopropyl-4-(octahydro-pyrrolo[3,2-b]pyridin-1-yl)-pyrido [3,4-d]pyrimidine]"
18,< 100 nM,"Clc1cc2c(-c3nc(N4CCNCC4)c4c(C5CCC5)cncc4n3)ccnc2[nH]1 [Example 130, 2-(2-Chloro-1H-pyrrolo[2,3-b]pyridin-4-yl)-5-cyclobutyl-4-piperazin-1-yl-pyrido[3,4-d]pyrimidine]"
19,< 100 nM,"c1ncc(-c2cc3c(-c4nc(N5CCNCC5)c5c(C6CCC6)cncc5n4)ccnc3[nH]2)cn1 [Example 131, 5-Cyclobutyl-4-piperazin-1-yl-2-(2-pyrimidin-5-yl-1H-pyrrolo[2,3-b]pyridin-4-yl)-pyrido[3,4-d]pyrimidine]"
20,< 100 nM,Cn1cc(-c2cc3c(-c4nc(N5CCNCC5)c5c(C6CCC6)cncc5n4)ccnc3[nH]2)cn1 [Example 132]
21,< 100 nM,"CCSc1cc2c(-c3nc(N4CCNCC4)c4c(C5CCC5)cncc4n3)ccnc2[nH]1 [Example 133, 5-Cyclobutyl-2-(2-ethylsulfanyl-1H-pyrrolo[2,3-b]pyridin-4-yl)-4-piperazin-1-yl-pyrido[3,4-d]pyrimidine]"
22,< 100 nM,"CCSc1cc2c(-c3nc(N4CCNCC4)c4c(C5CC5)cncc4n3)ccnc2[nH]1 [Example 134, 5-Cyclopropyl-2-(2-ethylsulfanyl-1H-pyrrolo[2,3-b]pyridin-4-yl)-4-piperazin-1-yl-pyrido[3,4-d]pyrimidine]"
23,< 100 nM,"CC1(C)CNCCC1Nc1nc(-c2ccnc(Nc3cc4ccccn4n3)c2)nc2cncc(C3CCC3)c12 (stereo not shown) [Example 136, {5-Cyclobutyl-2-[2-(pyrazolo[1,5-a]pyridin-2-ylamino)-pyridin-4-yl]-pyrido[3,4-d]pyrimidin-4-yl}-(3,3-dimethyl-piperidin-4-yl)-amine]"

row,Structure (SMILES),IC50
1,"CN(c1nc(-c2ccnc(Nc3nc(F)c(F)cc3F)c2)nc2cncc(C3CCC3)c12)C1CCNCC1(C)C (stereo not shown) [Example 106, {5-Cyclobutyl-2-[2-(3,5,6-trifluoro-pyridin-2-ylamino)-pyridin-4-yl]-pyrido[3,4-d]pyrimidin-4-yl}-(3,3-dimethyl-piperidin-4-yl)-methyl-amine]",< 100 nM
2,"CN(c1nc(-c2ccnc(Nc3ccccc3)c2)nc2cncc(C3CCC3)c12)C1CCNCC1(C)C (stereo not shown) [Example 110, [5-Cyclobutyl-2-(2-phenylamino-pyridin-4-yl)-pyrido[3,4-d]pyrimidin-4-yl]-(3,3-dimethyl-piperidin-4-yl)-methyl-amine]",< 100 nM
3,"Cc1cc2c(-c3nc(N(C)C4CCNCC4(C)C)c4c(C5CC5)cncc4n3)ccnc2[nH]1 (stereo not shown) [Example 115, [5-Cyclopropyl-2-(2-methyl-1H-pyrrolo[2,3-b]pyridin-4-yl)-pyrido [3,4-d]pyrimidin-4-yl]-(3,3-dimethyl-piperidin-4-yl)-methyl-amine]",< 100 nM
4,"Cc1cc2c(-c3nc(N(C)C4CCNCC4(C)C)c4c(C5CCC5)cncc4n3)ccnc2[nH]1 (stereo not shown) [Example 116, [5-Cyclobutyl-2-(2-methyl-1H-pyrrolo[2,3-b]pyridin-4-yl)-pyrido[3,4-d]pyrimidin-4-yl]-(3,3-dimethyl-piperidin-4-yl)-methyl-amine]",< 100 nM
5,"CSc1cc2c(-c3nc(N(C)C4CCNCC4)c4c(C5CC5)cncc4n3)ccnc2[nH]1 [Example 119, [5-Cyclopropyl-2-(2-methylsulfanyl-1H-pyrrolo[2,3-b]pyridin-4-yl)-pyrido[3,4-d]pyrimidin-4-yl]-methyl-piperidin-4-yl-amine]",< 100 nM
